Tested on: Mitochondria-located protein genes
Assay: DNA chip mRNA expression in yeast, mitochondria-located protein genes (Table 2)
Assay type: cell-based, Saccharomyces cerevisiae S288C
Conditions: cells incubated two hours with the chemical substance
Procedure, shortened: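 Value is the scanned fluorescence intensity ratio of exposed versus chemical-free cells. Log-phase S288C yeast in YPD at 25° C. received one toxic substance for two hours, dosed to slow growth without killing; Cy3/Cy5-labeled cDNA from oligo-dT-purified mRNA was hybridized to a whole-genome chip at 65° C.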

## N#Cc1c(Cl)c(Cl)c(Cl)c(C#N)c1Cl [(9), 2,4,5,6-tetrachloro-1,3-benzenedicarbonitrile]
Yeast gene YJR121W
  The level of expressed mRNA in the presence of chemical substance/The level of expressed mRNA in the absence of chemical substance: 0.8
Yeast gene YKL003C
  The level of expressed mRNA in the presence of chemical substance/The level of expressed mRNA in the absence of chemical substance: 1.5
Yeast gene YKL016C
  The level of expressed mRNA in the presence of chemical substance/The level of expressed mRNA in the absence of chemical substance: 1.3
Yeast gene YKL141W
  The level of expressed mRNA in the presence of chemical substance/The level of expressed mRNA in the absence of chemical substance: 0.8
Yeast gene YKL142W
  The level of expressed mRNA in the presence of chemical substance/The level of expressed mRNA in the absence of chemical substance: 5.8
Yeast gene YKL148C
  The level of expressed mRNA in the presence of chemical substance/The level of expressed mRNA in the absence of chemical substance: 1.7
Yeast gene YKL170W
  The level of expressed mRNA in the presence of chemical substance/The level of expressed mRNA in the absence of chemical substance: 0.9
Yeast gene YKL194C
  The level of expressed mRNA in the presence of chemical substance/The level of expressed mRNA in the absence of chemical substance: 1.3
Yeast gene YKR066C
  The level of expressed mRNA in the presence of chemical substance/The level of expressed mRNA in the absence of chemical substance: 0.7
Yeast gene YLL041C
  The level of expressed mRNA in the presence of chemical substance/The level of expressed mRNA in the absence of chemical substance: 0.7
Yeast gene YLR038C
  The level of expressed mRNA in the presence of chemical substance/The level of expressed mRNA in the absence of chemical substance: 0.4
Yeast gene YLR259C
  The level of expressed mRNA in the presence of chemical substance/The level of expressed mRNA in the absence of chemical substance: 1.8
Yeast gene YLR295C
  The level of expressed mRNA in the presence of chemical substance/The level of expressed mRNA in the absence of chemical substance: 1.4
Yeast gene YLR304C
  The level of expressed mRNA in the presence of chemical substance/The level of expressed mRNA in the absence of chemical substance: 0.1
Yeast gene YLR348C
  The level of expressed mRNA in the presence of chemical substance/The level of expressed mRNA in the absence of chemical substance: 2.1
Yeast gene YLR395C
  The level of expressed mRNA in the presence of chemical substance/The level of expressed mRNA in the absence of chemical substance: 1.0
Yeast gene YML054C
  The level of expressed mRNA in the presence of chemical substance/The level of expressed mRNA in the absence of chemical substance: 4.1
Yeast gene YML120C
  The level of expressed mRNA in the presence of chemical substance/The level of expressed mRNA in the absence of chemical substance: 1.3
Yeast gene YML129C
  The level of expressed mRNA in the presence of chemical substance/The level of expressed mRNA in the absence of chemical substance: 1.4
Yeast gene YMR023C
  The level of expressed mRNA in the presence of chemical substance/The level of expressed mRNA in the absence of chemical substance: 1.5
Yeast gene YMR035W
  The level of expressed mRNA in the presence of chemical substance/The level of expressed mRNA in the absence of chemical substance: 1.7
Yeast gene YMR083W
  The level of expressed mRNA in the presence of chemical substance/The level of expressed mRNA in the absence of chemical substance: 0.4
Yeast gene YMR089C
  The level of expressed mRNA in the presence of chemical substance/The level of expressed mRNA in the absence of chemical substance: 5.6
Yeast gene YMR152W
  The level of expressed mRNA in the presence of chemical substance/The level of expressed mRNA in the absence of chemical substance: 2.7
Yeast gene YMR203W
  The level of expressed mRNA in the presence of chemical substance/The level of expressed mRNA in the absence of chemical substance: 0.7
Yeast gene YMR267W
  The level of expressed mRNA in the presence of chemical substance/The level of expressed mRNA in the absence of chemical substance: 0.4
Yeast gene YNL055C
  The level of expressed mRNA in the presence of chemical substance/The level of expressed mRNA in the absence of chemical substance: 1.1
Yeast gene YNL071W
  The level of expressed mRNA in the presence of chemical substance/The level of expressed mRNA in the absence of chemical substance: 1.1
Yeast gene YNL073W
  The level of expressed mRNA in the presence of chemical substance/The level of expressed mRNA in the absence of chemical substance: 0.9
Yeast gene YNL104C
  The level of expressed mRNA in the presence of chemical substance/The level of expressed mRNA in the absence of chemical substance: 1.1
Yeast gene YNL256W
  The level of expressed mRNA in the presence of chemical substance/The level of expressed mRNA in the absence of chemical substance: 0.8
Yeast gene YOL096C
  The level of expressed mRNA in the presence of chemical substance/The level of expressed mRNA in the absence of chemical substance: 1.3
Yeast gene YOR020C
  The level of expressed mRNA in the presence of chemical substance/The level of expressed mRNA in the absence of chemical substance: 5.8
Yeast gene YOR037W
  The level of expressed mRNA in the presence of chemical substance/The level of expressed mRNA in the absence of chemical substance: 1.3
Yeast gene YOR100C
  The level of expressed mRNA in the presence of chemical substance/The level of expressed mRNA in the absence of chemical substance: 2.0
Yeast gene YOR130C
  The level of expressed mRNA in the presence of chemical substance/The level of expressed mRNA in the absence of chemical substance: 2.0
Yeast gene YOR142W
  The level of expressed mRNA in the presence of chemical substance/The level of expressed mRNA in the absence of chemical substance: 1.1
Yeast gene YOR150W
  The level of expressed mRNA in the presence of chemical substance/The level of expressed mRNA in the absence of chemical substance: 0.8
Yeast gene YOR176W
  The level of expressed mRNA in the presence of chemical substance/The level of expressed mRNA in the absence of chemical substance: 1.0
Yeast gene YOR187W
  The level of expressed mRNA in the presence of chemical substance/The level of expressed mRNA in the absence of chemical substance: 0.6
Yeast gene YOR316C
  The level of expressed mRNA in the presence of chemical substance/The level of expressed mRNA in the absence of chemical substance: 1.6
Yeast gene YPL040C
  The level of expressed mRNA in the presence of chemical substance/The level of expressed mRNA in the absence of chemical substance: 0.2
Yeast gene YPL134C
  The level of expressed mRNA in the presence of chemical substance/The level of expressed mRNA in the absence of chemical substance: 0.6
Yeast gene YPL135W
  The level of expressed mRNA in the presence of chemical substance/The level of expressed mRNA in the absence of chemical substance: 0.5
Yeast gene YPL215W
  The level of expressed mRNA in the presence of chemical substance/The level of expressed mRNA in the absence of chemical substance: 1.7
Yeast gene YPL262W
  The level of expressed mRNA in the presence of chemical substance/The level of expressed mRNA in the absence of chemical substance: 1.4
Yeast gene YPR024W
  The level of expressed mRNA in the presence of chemical substance/The level of expressed mRNA in the absence of chemical substance: 3.0
Yeast gene YPR037C
  The level of expressed mRNA in the presence of chemical substance/The level of expressed mRNA in the absence of chemical substance: 1.5
Yeast gene YPR047W
  The level of expressed mRNA in the presence of chemical substance/The level of expressed mRNA in the absence of chemical substance: 2.1
Yeast gene YPR134W
  The level of expressed mRNA in the presence of chemical substance/The level of expressed mRNA in the absence of chemical substance: 1.8
